# Data as given in patent publication US20250177398A1, “CARBONIC ANHYDRASE ENZYMES FOR REGULATING MAST CELL HEMATOPOIESIS AND TYPE 2 INFLAMMATION” (RUTGERS, THE STATE UNIVERSITY OF NEW JERSEY, priority 2015, published 2025).
# Columns and labels:
# [1] = system: bone marrow-resident progenitor cells (mast cell and basophil development); assay: Murine mast cell and basophil developmental assay: BM progenitor cells cultured with IL-3; type: cell-based, mouse; conditions: BM cells + IL-3 10 ng/mL, 30 μg/mL MZ
# Description: FIGS. 6A-6B. Bone marrow-resident progenitor cells were cultured in media, media treated with IL-3 (10 ng/ml), media treated with IL-3 and compound 8 (25 ng/ml) (FIG. 6A) or, media treated with IL-3 and compound 16 (25, 50, or 75 ng/ml) (FIG. 6B). On day 7 post-culture mast cells were identified by flow cytometric analysis. Results are representative of 2 independent experiments with at least 4 technical replicated per experiment. Statistical analysis was performed using a Student's t-test. (*,p<0.05) (***,p<0.001).
# BM cells were isolated from the femur of WT mice and cultured in the presence of 10 ng/mL of IL-3 and vehicle (1:10 DMSO to RPMI complete media) or 30 μg/mL MZ. Fresh IL-3 with either vehicle or MZ were added daily, and mast cell and basophil populations were evaluated on day 7 post-culture.
# Further, it is illustrated that genetically editing Car1 in stem cells via CRISPR/Cas9 technology decreases their capacity to develop into mature mast cells. […] However, whether inhibitors that selectively target Car1 can be used to inhibit mast cell development was unknown. […] Therefore, it was sought to be determined whether compound 8 and/or compound 16 could inhibit mast cell development from progenitor cell populations. To test this, the mast cell developmental assay was employed and bone marrow-resident progenitor cells were treated with IL-3 to promote mast cell development.
# [2] = system: Trichinella spiralis; assay: Trichinella spiralis infection of mice; type: in vivo, mouse; conditions: T. spiralis-infected mice
# Description: Methods for maintenance, recovery, infection and isolation of Trichinella larvae were performed as previously described (Urban, et al., 2000. J Immunol 164:2046-2052). Mice were infected with 500 Trichinella muscle larvae by oral gavage and were treated with vehicle (1:5 DMSO to PBS) or 2-3 mg of MZ i.p. daily; mice were sacrificed between 10-11 days post-infection. At necropsy, single cell suspensions of mLNs and spleens were prepared as previously described (Giacomin, et al., 2012. Journal of immunology (Baltimore, Md.: 1950) 189:4371-4378) for basophil and mast cell analysis. Blood was collected and serum was isolated for analysis of Mcpt1 and IgE. Sections (1 cm) of small intestine (jejunum) were collected for real-time PCR and histological analysis. Remaining sections of small intestine were slit lengthwise, rinsed in PBS, and placed in HBSS for 4 hours at 37° C. and adult worms were quantified by microscopic analysis as previously described (Urban, et al., 2000. J Immunol 164:2046-2052). Rag1^−/− mice were injected (i.p.) with a combination of recombinant IL-3 (1 μg) and α-IL-3 antibody (0.5 μg) (BioLegend: clone MP2-8F8) in 200 μl PBS every 3 days for 7-10 days. IL-3C-treated mice were treated with MZ (2 mg) or vehicle (DMSO) every day.
# RNA from sections of small intestine was isolated by homogenization in TRIzol (Invitrogen) followed by phenol-chloroform extraction and isopropanol precipitation. cDNA was generated per standard protocol with Superscript reverse transcriptase (Invitrogen) and used as input for real-time PCR. Real-time data were analyzed using the ΔΔCT method using SYBR Green chemistry (Applied Biosystems) with β-actin serving as the endogenous housekeeping gene. All reactions were run on an ABI 7500 Fast Real-Time PCR System (Applied Biosystems). Samples were normalized to naïve controls. The following QuantiTech primer assays from Qiagen were used: Mcpt1 (QT00157864), IL-4 (QT00160678), IL-9 (QT00107555), Arg1 (QT00134288), Retnla (QT00254359), Car1 (QT01058113) and Car2 (QT00494592).
# (§1) Single cell suspensions were made from mesenteric, or skin draining lymph nodes. Lymph node cells were cultured in RPMI complete medium and treated with and without anti-CD3 (BD Pharmingen: clone 145-2C11) and anti-CD28 antibodies (BD Pharmingen: clone 37.51) for 72 hours. Standard sandwich ELISA (eBioscience) was performed to measure IL-4 (clones 11B11 and BVD6-24G2), IL-5 (clones TRFK5 and TRFK4) and IL-13 (clones eBio13A and eBio1316H) levels in the cell-free supernatants. Serum quantities of Mcpt1 and IgE were measured by commercial sandwich ELISA kits (BD Biosciences, eBioscience).
# [3] = system: BM cells (macrophage development); assay: Murine macrophage cultures: BM cells with L-cell supernatant; type: cell-based, mouse; conditions: 30% L-cell supernatant, 30 μg/mL MZ, day 5 (FIG. 1G)
# Description: BM cells were isolated from the femur of WT mice and cultured in the presence of 30% L-cell supernatant and vehicle (1:10 DMSO to RPMI complete media) or 30 μg/mL MZ. Fresh macrophage medium with either vehicle or MZ was added daily and macrophage cell populations were evaluated on day 5 post-culture
# [4] = system: atopic dermatitis (AD)-like disease; assay: MC903-induced atopic dermatitis-like disease; type: in vivo, mouse; conditions: MC903-treated mice, 2-3 mg MZ i.p. daily
# Description: as §1
# Mice were treated once a day topically with 2 nmol of MC903 (calcipotriol, Tocris Bioscience) in 20 μl of ethanol for 6 days as described previously (Kim, et al., 2013. Sci Transl Med 5: 170ra116). MC903-treated mice were treated with vehicle (1:5 DMSO to PBS) or 2-3 mg of MZ i.p. daily and sacrificed on day 7 post-treatment.
# [5] = system: Aspergillus fumigatus-induced allergic airway inflammation; assay: Aspergillus fumigatus extract-induced allergic asthma; type: in vivo, mouse; conditions: mice challenged intranasally with A. fumigatus extract for 3 weeks, MZ (FIG. 5)
# Description: Aspergillus-induced allergic asthma. Mice were challenged with Aspergillus fumigatus allergic extract as previously described (Mathias, C. B., et al., J Immunol 182, 2416-2424 (2009)). Briefly, mice were challenged (intranasally) 3 times a week for 3 weeks with 50 μl of aqueous Aspergillus fumigatus Allergenic Extract (Greer laboratories: item # M3). After 3 weeks mice were sacrificed and BAL and lungs were processed as previously described (Espinosa, V., et al., PLOS Pathog 10, e1003940 (2014)).
smiles,measurement,setting,value
"CC(=O)/N=c1/sc(S(N)(=O)=O)nn1C [MZ, methazolamide]",basophil numbers,[1]; day 7,decreased
same,percentages of basophils,[1]; day 7 (FIG. 1F),significantly increased
same,mast cell populations compared to controls,[1]; day 7 post-culture (FIG. 1E),significantly reduced
same,"type 2 responses (mLN cell IL-4, IL-5, IL-13; intestinal il4, il9, arg1, retnla; serum IgE)",[2]; 2-3 mg MZ i.p. daily (FIG. 3A-C),significantly reduced
same,worms recovered from the intestines (worm burden),[2]; 2-3 mg MZ i.p. daily (FIG. 3D),significantly more
same,infection-induced basophilia (splenic basophils),[2]; 2-3 mg MZ i.p. daily (FIGS. 2F-2G),no effect
same,"mast cell responses (mLN mast cells, serum Mcpt1, intestinal mcpt1 expression, intestinal mast cells by histology)","[2]; 2-3 mg MZ i.p. daily, day 10-11 (FIGS. 2A-2E)",significantly reduced
same,macrophage development,[3],no effect
same,"type 2 cytokine production (skin-draining LN IL-4, IL-5, IL-13) vs controls",[4]; day 7 (FIG. 3E),equivalent or significantly increased
same,AD-like pathology vs controls,[4]; day 7 (FIG. 3F),similar
same,eosinophilic airway inflammation (eosinophils in BAL and lung),[5],significantly reduced
same,pulmonary mast cell responses,[5],significantly reduced
